In US7045537B1, “Protein structures and protein fibres” (The University of Sussex, priority 1999, dated 2006):
Residues, ends and D or L forms follow the SMILES beside them.

Assays:
Assay type in all cases: physicochemical
[1] = Circular dichroism (CD) spectroscopy of peptides and peptide mixtures; details: individual peptide, 10 mM MOPS pH 7, 5° C.
Procedure: Peptide samples were incubated at 5° C. in 10 mM MOPS (3-(N-Morpholino)propanesulfonic acid), pH 7. Sample concentrations were determined from their UV absorbance at 280 nm (SAF-p1) and 214 nm (SAF-p2). After baseline correction, ellipticities in mdeg were converted to molar ellipticities (deg cm^2 dmol-res^−1) by normalizing for the concentration of peptide bonds. Data were recorded in a cell of 1 mm path length by integrating the signal for 5s (and 1s for the fresh 100 μM peptide mixture) every nm in the range 205–260 nm. CD measurements were made using a JASCO J-715 spectropolarimeter fitted with a Peltier temperature controller.
The CD data shown in FIG. 3 provides spectroscopic evidence for the formation of helical structures by the SAF peptides.
Consistent with our design, neither SAF-p1 nor SAF-p2 was highly structured in aqueous solution at pH 7 and 5° C. (FIG. 3). However, when mixed in equal proportions the circular dichroism (CD) spectrum changed and, moreover, was markedly different from the theoretical spectrum generated by averaging the spectra for the isolated peptides. In particular, the spectrum for the mixture had intense minima at 208 and 222 nm consistent with the formation of α-helical structure, but these features were not as pronounced in the spectra of the individual peptides. This was clear evidence that the two peptides interacted to form an α-helical structure as designed. Furthermore, and as expected for a multimerization event, the magnitude of these spectral changes depended on peptide concentration; a SAF mixture with 10 μM of each peptide, did show a weak signal indicative of some α-helical structure, however, a 100 μM mixture gave a much stronger signal (FIGS. 3A&B).
The shape and intensity of spectra from 100 μM mixtures of the SAF peptides also changed with time (FIG. 3B). […] After incubation of the mixture for 1 hour at 5° C. (“maturation”), however, the signal at 222 nm was more intense, and indicated approximately 75% α-helix, consistent with substantial coiled-coil formation.

[2] = Linear dichroism (LD) spectroscopy under shear flow; details: for LD DATA @ 100 μM (signal): individual peptide
Procedure: Linear dichroism (LD) spectroscopy was also used to test if elongated structures were being formed as designed. Long polymers such as DNA molecules can be oriented by shear flow. This effect can be monitored by LD spectroscopy provided that chromophores also become aligned by the flow (M. Bloemendal (1994) Chem. Soc. Rev. 23, 265; A. Rodger and B. Norden (1997) Oxford Chemistry Masters (Oxford University Press, Oxford), vol. 1).
Peptide samples were prepared for LD as for CD. LD data were collected on samples spinning in a couette flow cell by integrating the signal for 2 s every nm in the range […], using a JASCO J-715 spectropolarimeter. After baseline correction, absorbance was converted to molar extinction coefficient (1 mol-res^−1 cm^−1) by normalizing for the concentration of peptide bonds. A linear correction for a sloping baseline was made to the data from the 100 μM SAF peptide mixture.

[3] = Electron microscopy (TEM/SEM) of peptide preparations; details: individual peptide
Procedure: To confirm fibre assembly, we used electron microscopy to visualize structures in the peptide preparations directly. For TEM experiments, peptide samples were incubated for 1 h at 5° C. in filtered 10 mM MOPS, pH 7. A drop of peptide solution was applied to a carbon-coated copper specimen grid (Agar Scientific Ltd, Stansted, UK), and dried with filter paper before negative staining with 0.5% aqueous uranyl acetate and then dried at 5° C. A “fresh” SAF peptide mixture was prepared by mixing preincubated solutions of the individual peptides at 200 μM directly on the specimen grid, before drying and negative staining as described. Grids were examined in a Hitachi 7100 TEM at 100 kV and digital images were acquired with a (800×1200 pixel) charge-coupled device camera (Digital Pixel Co. Ltd., Brighton, UK) and analyzed (Kinetic Imaging Ltd., Liverpool, UK).
For scanning electron microscopy (SEM) experiments, negatively-stained specimen grids were sputter-coated with gold and examined in a Leo Stereoscan 420 SEM at 20 kV and with a probe current of 10 pA.

[4] = Solubility remarks in peptide design table; details: individual peptide
Source text: Various peptide monomer units were designed as described above. The monomers and capping peptides (designed to complement the sticky ends of the monomers so as to produce flush, or blunt ends and, so, arrest longitudinal fibre assembly) are set out in Table 1: […]

Compound	CD DATA @ 10 μM (α-helix) [1]	CD DATA @ 100 μM (α-helix) [1] [%]	LD DATA @ 100 μM (signal) [2]	EM DATA @ 100 μM (fibres) [3]	DESIGN remark on solubility / precipitation [4]	LD signal ([2]; 20 μM)
CC[C@H](C)[C@H](NC(=O)[C@H](CCC(=O)O)NC(=O)[C@H](CCC(N)=O)NC(=O)[C@H](CCC(=O)O)NC(=O)[C@H](CC(C)C)NC(=O)[C@H](C)NC(=O)[C@H](C)NC(=O)[C@@H](NC(=O)[C@H](CCC(=O)O)NC(=O)[C@H](CCC(N)=O)NC(=O)[C@H](CCCCN)NC(=O)[C@H](CC(C)C)NC(=O)[C@H](Cc1c[nH]cn1)NC(=O)[C@H](C)NC(=O)[C@H](CC(N)=O)NC(=O)[C@H](CCCCN)NC(=O)[C@H](Cc1c[nH]c2ccccc12)NC(=O)[C@H](CCCCN)NC(=O)[C@H](CC(C)C)NC(=O)[C@H](C)NC(=O)[C@H](CCCNC(=N)N)NC(=O)[C@@H](NC(=O)[C@H](CCCCN)NC(C)=O)[C@@H](C)CC)[C@@H](C)CC)C(=O)N[C@@H](C)C(=O)N[C@@H](C)C(=O)N[C@@H](CC(C)C)C(=O)N[C@@H](CCC(=O)O)C(=O)N[C@@H](CCC(N)=O)C(N)=O [SAF-p2B, *K IRALKWK NAHLKQE IAALEQE IAALEQ*] (Ac-KIRALKWKNAHLKQEIAALEQEIAALEQ-NH2)	~60%	~95	–	–	–	–
K ISALKNK NASLKQE IAALEQE IAALEQ (KISALKNKNASLKQEIAALEQEIAALEQ) [SAF-p2A]	unfolded	–	–	–	low solubility	–
CC[C@H](C)[C@H](NC(=O)[C@H](CCC(=O)O)NC(=O)[C@H](CCC(N)=O)NC(=O)[C@H](CCC(=O)O)NC(=O)[C@H](CC(C)C)NC(=O)[C@H](C)NC(=O)[C@H](C)NC(=O)[C@@H](NC(=O)[C@H](CCC(=O)O)NC(=O)[C@H](CCC(N)=O)NC(=O)[C@H](CCCCN)NC(=O)[C@H](CC(C)C)NC(=O)[C@H](Cc1c[nH]cn1)NC(=O)[C@H](C)NC(=O)[C@H](CC(N)=O)NC(=O)[C@H](CCCCN)NC(=O)[C@H](Cc1c[nH]c2ccccc12)NC(=O)[C@H](CCCCN)NC(=O)[C@H](CC(C)C)NC(=O)[C@H](C)NC(=O)[C@H](CCCNC(=N)N)NC(=O)[C@@H](NC(=O)[C@@H](N)CCCCN)[C@@H](C)CC)[C@@H](C)CC)C(=O)N[C@@H](C)C(=O)N[C@@H](C)C(=O)N[C@@H](CC(C)C)C(=O)N[C@@H](CCC(=O)O)C(=O)N[C@@H](CCC(N)=O)C(=O)O [SAF-p2C] (H-KIRALKWKNAHLKQEIAALEQEIAALEQ-OH)	unfolded	~20	–	thin	–	–
tropomyosin [reference compound]	–	–	–	–	–	could be aligned to give a LD signal

Further lines, with some results ahead:

CD DATA @ 10 μM (α-helix) [1]	CD DATA @ 100 μM (α-helix) [1] [%]	LD DATA @ 100 μM (signal) [2]	EM DATA @ 100 μM (fibres) [3]	Compound	DESIGN remark on solubility / precipitation [4]	LD signal ([2]; 20 μM)
~15%	~45	no	no	CC[C@H](C)[C@H](NC(=O)[C@H](CCC(=O)O)NC(=O)[C@H](CCC(N)=O)NC(=O)[C@H](CCC(=O)O)NC(=O)[C@H](CC(C)C)NC(=O)[C@H](C)NC(=O)[C@H](C)NC(=O)[C@@H](NC(=O)[C@H](CCC(=O)O)NC(=O)[C@H](CCC(N)=O)NC(=O)[C@H](CCCCN)NC(=O)[C@H](CC(C)C)NC(=O)[C@H](Cc1c[nH]cn1)NC(=O)[C@H](C)NC(=O)[C@H](CC(N)=O)NC(=O)[C@H](CCCCN)NC(=O)[C@H](C)NC(=O)[C@H](CCCCN)NC(=O)[C@H](CC(C)C)NC(=O)[C@H](C)NC(=O)[C@H](CCCNC(=N)N)NC(=O)[C@@H](NC(=O)[C@@H](N)CCCCN)[C@@H](C)CC)[C@@H](C)CC)C(=O)N[C@@H](C)C(=O)N[C@@H](C)C(=O)N[C@@H](CC(C)C)C(=O)N[C@@H](CCC(=O)O)C(=O)N[C@@H](CCC(N)=O)C(=O)O [SAF-p2D] (H-KIRALKAKNAHLKQEIAALEQEIAALEQ-OH)	–	–
unfolded	~20	no	no	CC[C@H](C)[C@H](NC(=O)[C@H](CCCCN)NC(=O)[C@H](CCC(N)=O)NC(=O)[C@H](CCCCN)NC(=O)[C@H](CC(C)C)NC(=O)[C@H](C)NC(=O)[C@H](C)NC(=O)[C@@H](NC(=O)[C@@H](N)CCCCN)[C@@H](C)CC)C(=O)N[C@@H](C)C(=O)N[C@@H](CO)C(=O)N[C@@H](CC(C)C)C(=O)N[C@@H](CCCCN)C(=O)N[C@@H](CCC(N)=O)C(=O)N[C@@H](CCC(=O)O)C(=O)N[C@H](C(=O)N[C@@H](CC(=O)O)C(=O)N[C@@H](C)C(=O)N[C@@H](CC(C)C)C(=O)N[C@@H](CCC(=O)O)C(=O)N[C@@H](Cc1ccc(O)cc1)C(=O)N[C@@H](CCC(=O)O)C(=O)N[C@@H](CC(N)=O)C(=O)N[C@@H](CC(=O)O)C(=O)N[C@@H](C)C(=O)N[C@@H](CC(C)C)C(=O)N[C@@H](CCC(=O)O)C(=O)N[C@@H](CCC(N)=O)C(=O)O)[C@@H](C)CC [SAF-p1C] (H-KIAALKQKIASLKQEIDALEYENDALEQ-OH)	–	–
unfolded	~45	–	no	CC[C@H](C)[C@H](NC(=O)[C@H](CCCCN)NC(=O)[C@H](CCC(N)=O)NC(=O)[C@H](CCCCN)NC(=O)[C@H](CC(C)C)NC(=O)[C@H](C)NC(=O)[C@H](C)NC(=O)[C@@H](NC(=O)[C@@H](N)CCCCN)[C@@H](C)CC)C(=O)N[C@@H](C)C(=O)N[C@@H](C)C(=O)N[C@@H](CC(C)C)C(=O)N[C@@H](CCCCN)C(=O)N[C@@H](CCC(N)=O)C(=O)N[C@@H](CCC(=O)O)C(=O)N[C@H](C(=O)N[C@@H](CC(=O)O)C(=O)N[C@@H](C)C(=O)N[C@@H](CC(C)C)C(=O)N[C@@H](CCC(=O)O)C(=O)N[C@@H](Cc1ccc(O)cc1)C(=O)N[C@@H](CCC(=O)O)C(=O)N[C@@H](CC(N)=O)C(=O)N[C@@H](CC(=O)O)C(=O)N[C@@H](C)C(=O)N[C@@H](CC(C)C)C(=O)N[C@@H](CCC(=O)O)C(=O)N[C@@H](CCC(N)=O)C(=O)O)[C@@H](C)CC [SAF-p1A] (H-KIAALKQKIAALKQEIDALEYENDALEQ-OH)	precipitates	–
~60%	~70	–	–	CC[C@H](C)[C@H](NC(=O)[C@H](CCCCN)NC(C)=O)C(=O)N[C@@H](C)C(=O)N[C@@H](C)C(=O)N[C@@H](CC(C)C)C(=O)N[C@@H](CCCCN)C(=O)N[C@@H](CCC(N)=O)C(=O)N[C@@H](CCCCN)C(=O)N[C@H](C(=O)N[C@@H](C)C(=O)N[C@@H](C)C(=O)N[C@@H](CC(C)C)C(=O)N[C@@H](CCCCN)C(=O)N[C@@H](CCC(N)=O)C(=O)N[C@@H](CCC(=O)O)C(=O)N[C@H](C(=O)N[C@@H](CC(=O)O)C(=O)N[C@@H](C)C(=O)N[C@@H](CC(C)C)C(=O)N[C@@H](CCC(=O)O)C(=O)N[C@@H](Cc1ccc(O)cc1)C(=O)N[C@@H](CCC(=O)O)C(=O)N[C@@H](CC(N)=O)C(=O)N[C@@H](CC(=O)O)C(=O)N[C@@H](C)C(=O)N[C@@H](CC(C)C)C(=O)N[C@@H](CCC(=O)O)C(=O)N[C@@H](CCC(N)=O)C(N)=O)[C@@H](C)CC)[C@@H](C)CC [SAF-p1B, *K IAALKQK IAALKQE IDALEYE NDALEQ*] (Ac-KIAALKQKIAALKQEIDALEYENDALEQ-NH2)	–	–
